Test results published in patent publication US20040106135A1, “Assay for PPAR ligand dependent gene modulation” (priority 2002, published 2004).
Marks after values point to notes of the source that are not given here.

How the values were obtained:
[1] = Serum triglyceride levels in fat-fed hamsters; format: in vivo, hamster
Protocol: Blood was sampled at 8, 16 and 48 hours following a single drug treatment for total triglyceride analysis. The mean levels (+/−SEM) for 3 animals per group are shown. The “*” indicates a statistically significant difference with respect to control (p<0.01) by Student's t-test. Animal studies: All procedures performed in this study were approved by the Animal Care and Use committee, and conform to the guide for the Care and Use of Laboratory Animals Act. Male Syrian Golden hamsters (Charles River, Wilmington Mass.) weighing 120-140 g, were used in the study. Animals were kept on a 12-hour light/dark cycle and allowed free access to normal chow and water. The animals were divided into groups according to weight, and fed either an high fat diet (0.5% cholesterol, 5% coconut oil) (N=3) or normal chow diet (N=3). […] At intervals of 0, 8, 16 and 48 hr animals were anesthetized with CO2. Blood was collected by cardiac puncture into EDTA containing tubes; plasma was isolated for immediate analysis of triglycerides by the Dade Clinical Analyser®. Animals were then euthanized with CO2. The liver and kidneys were collected, flash frozen in liquid nitrogen and stored at −80° C. for future gene expression analysis.

ACHN cells = assay: Transcriptional profiling by DNA microarray, ACHN cells; format: cell-based, human
Excerpt: Threshold cutoffs were set at fold change >1.4; p<0.01; and statistically significant in at least 2 experiments. The genes fatty acid CoA ligase 2 (FACL2), palmitoyl acyl-CoA oxidase 1 (ACOX1), and carnitine palmitoyl acyl-CoA transferase (CPT1A) are included for comparison based on published reports that they are PPARα responsive genes in HepG2 cells over expressing PPARα (Hsu et al., (2001) J. Biol. Chem. 276:27950-8; Lawrence et al., (2001) J. Biol. Chem. 276:31521-7).
Expression profiling: Expression profiling of RNA samples was performed essentially as described (Lockhart et al., (1996) Nat. Biotechnol. 14:1675-80) using the Affymetrix human U95Av2 array. Briefly, RNA was isolated from 100 mm cell culture dishes, DNased, and 15 μg used as a template for double stranded cDNA synthesis according to standard protocols (Invitrogen). […] The resultant cRNA products were purified using RNeasy columns (Qiagen), pooled, and quantitated spectrophotometrically. […]
Data Analysis: Affymetrix CEL files from GeneChip 4.0 (Affymetrix) were imported into Resolver 2.0 under an empirically derived Affymetrix error model (Rosetta Inpharmatics). […] Accordingly, the statistical significance (P-value) of a given expression data point takes into account the underlying error associated with the Affymetrix transcript abundance measurements as determined by this platform-specific error model. […]

Compound: CCCCCCCN(CCc1ccc(SC(C)(C)C(=O)O)cc1)C(=O)Nc1ccc(F)cc1F [GW9578, ureido-thioisobutyric acid]
- Change of triglyceride levels compared with the control group ([1]; single dose, 8, 16 and 48 hours): significantly decreased
- Serum triglyceride levels, 48 h ([1]; single dose, mean +/- SEM, 3 animals, control 208.67): 104.67 + 12.02*
- Serum triglyceride levels, 8 h ([1]; single dose, mean +/- SEM, 3 animals, control 261.33): 106.00 + 46.22*
- Serum triglyceride levels, 16 h ([1]; single dose, mean +/- SEM, 3 animals, control 308.00): 142.33 + 51.31*
- ADRP induction in ACHN cells (ACHN cells): significantly induced
